According to patent publication US11028074B2, “CD73 inhibitors” (Eli Lilly and Company, priority 2018, dated 2021):
pEC50: −log10 of the molar value. Values belong to the compound of their own block, whether it stands above or below them.

Experiments:
[1] = molecular target: T1, CD73 (Homo sapiens, UniProt P21589); experiment: LC/MS Based Assay for Measuring CD73 Activity in Human Serum; type: biochemical; parameters: from tissue; host or cells: normal human serum; details: concentrations corrected with the fraction unbound, read-out: EC50, inhibition of CD73 activity in human serum
T1 sequence (P21589 27-549): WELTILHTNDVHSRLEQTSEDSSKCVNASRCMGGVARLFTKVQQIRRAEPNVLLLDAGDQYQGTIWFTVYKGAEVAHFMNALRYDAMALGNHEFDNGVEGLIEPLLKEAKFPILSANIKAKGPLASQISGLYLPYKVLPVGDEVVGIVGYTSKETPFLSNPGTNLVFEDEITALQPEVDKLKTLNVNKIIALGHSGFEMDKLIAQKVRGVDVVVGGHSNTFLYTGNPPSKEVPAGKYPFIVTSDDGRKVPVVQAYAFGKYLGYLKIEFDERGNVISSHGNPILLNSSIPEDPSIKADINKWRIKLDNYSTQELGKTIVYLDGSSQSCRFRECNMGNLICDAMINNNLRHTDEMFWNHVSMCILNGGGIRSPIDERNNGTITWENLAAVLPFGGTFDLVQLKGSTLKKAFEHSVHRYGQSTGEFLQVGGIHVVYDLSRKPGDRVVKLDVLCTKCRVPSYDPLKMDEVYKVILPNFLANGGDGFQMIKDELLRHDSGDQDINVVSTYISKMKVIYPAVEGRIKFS
Method: Fresh normal human blood is centrifuged at 1,500 g for 15 minutes at room temperature, and the upper fraction containing serum is collected. […] After incubation on ice for 60 min, […] (50 uM) is added to each well in the plate, and the plate is incubated at room temperature for 15 min. The plate is then placed on dry ice with addition of 200 uL/well of 17.3 TCA followed by shaking at 26 fps for 3 min with a plate-shaking machine (Qiagen). The plate is then centrifuged at 2940 g for 20 min at 4° C. […] After further centrifugation at 2940 g for 20 min at 4° C., 200 ul/well of the supernatant is used for analysis of ^13C10-^15N5-adenosine, ^13C10-^15N5-inosine and ^15N5-hypoxanthine by LC/MS as described above. For EC50 calculations, the concentrations of the CD73 inhibitor in the serum are corrected with the fraction unbound (%) derived from in silico models or experimentally.

[2] = molecular target: T2, murine CD73 (Mus musculus, UniProt Q61503); experiment: Ex Vivo Target Inhibition Assay (mouse whole blood after oral dosing); type: in vivo; details: read-out: Inhibition of AMP conversion to adenosine, Inhibition (%)
T2 construct: from tissue; host or cells: mouse whole blood (heparin) from orally dosed animals
T2 sequence (Q61503 29-551): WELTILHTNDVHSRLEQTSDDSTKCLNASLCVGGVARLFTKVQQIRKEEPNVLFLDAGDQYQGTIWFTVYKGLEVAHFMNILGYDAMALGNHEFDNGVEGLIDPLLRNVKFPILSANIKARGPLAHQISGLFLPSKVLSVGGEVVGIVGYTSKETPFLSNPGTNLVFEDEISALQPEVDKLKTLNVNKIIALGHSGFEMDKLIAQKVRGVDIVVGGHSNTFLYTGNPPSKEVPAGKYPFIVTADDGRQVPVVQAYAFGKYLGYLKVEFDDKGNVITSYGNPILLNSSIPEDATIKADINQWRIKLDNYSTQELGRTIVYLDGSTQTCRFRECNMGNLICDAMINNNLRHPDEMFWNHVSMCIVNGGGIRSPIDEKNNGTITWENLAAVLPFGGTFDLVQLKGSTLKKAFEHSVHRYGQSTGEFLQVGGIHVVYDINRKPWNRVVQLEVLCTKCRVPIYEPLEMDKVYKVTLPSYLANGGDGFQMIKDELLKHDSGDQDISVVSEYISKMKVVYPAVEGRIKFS
Method: The animals (6/group) are dosed orally with each compound formulated in 20% HPBCD (2-hydroxypropyl-β-cyclodextrin), pH 2 after tumors reach to approximately 400 mm^3.

[3] = test system: human PBMCs or CD4 cells; experiment: T Cell Suppression Assay (rescue of adenosine-mediated inhibition of T cell proliferation); type: cell-based; details: for Rescue of T cell proliferation (%): AMP in medium, 68-70 hr
Method: Cells are placed in a 37° C. water bath for 10 min to pre-activate T cells. […] To test compounds using PBMCs, test compounds at various concentrations are prepared in cell normal growth media (125 μL) containing 400-600 μM AMP. […] Treated cells are cultured at 37° C., 5% CO2 for 68-70 hr.
Medium (100 μl) containing CD4 cells is transferred to and filtered through AcroPrep plates to another plate via centrifugation at 1500 g for 2 hr. Filtered medium (50 μl/well) is mixed with the same volume of 80% methanol, 1% NH4OH, and internal standards (250 ng/mL ^13C5-AMP and 250 ng/mL ^13C5-Adenosine) for LC-MS analysis of metabolites.
Treated PBMCs or CD4 cells are collected and stained for Flow Cytometry to quantify T cell proliferation.
Flow data are acquired by BD FACS Verse. Each fluorescence channel is appropriately compensated. The data are processed on FloJo ver. 7.6.5 with the following gating strategy: lymphocytes gated on FSC vs SSC dot plot; viable cells of lymphocytes gated on SSC vs Zombie Aqua dot plot; CD3 cells of viable lymphocytes gated on APC-Cy7 vs Zombie Aqua dot plot1; CD4 cell and CD8 cells of CD3 cells gated on APC vs Pacific Blue dot plot; CD4 and CD8 cells further gated on APC vs CFSE(FITC) and Pacific Blue vs CFSE(FITC) dot plots. Proliferation of CD4 and CD8 cells is analyzed by a proliferation tool.

[4] = test system: CD4^+ T cells; experiment: Cytokine Analysis (ELISA); type: cell-based, human
Method: CFSE labeled human PBMCs (600,000 cells/mL) or CD4 cells (500,000 cells/mL) are mixed with Dynabeads® Human T-Activator CD3/CD28 (Gibco, cat #11131D) at a ratio of 1:1 of cell/beads and human IL-2 (60 IU/ml, Roche, cat #: 11011456001). Cells are placed in a 37° C. water bath for 10 min to pre-activate T cells. PBMCs (125 μl/well) or CD4 cells (100 μl/well) are transferred to a 96 well plate (Costar 3799, Corning Inc.). To test compounds using PBMCs, test compounds at various concentrations are prepared in cell normal growth media (125 μL) containing 400-600 μM AMP. To test compounds using CD4 cells, test compounds at various concentrations are prepared in cell normal growth media (100 μL) containing 200-250 μM AMP. Treated cells are cultured at 37° C., 5% CO2 for 68-70 hr.
Medium (160 μl) containing treated PBMCs is transferred to a plate and the remaining medium used for cytokine assay is transferred to AcroPrep 96 plates (AcroPrep 96 Filter plate, Omega 3K NTRL 350 ul well, Pall Life Science Cat #8033) for preparation of samples for LC-MS analysis of metabolites.
Culture medium from treated PBMCs is diluted at 1:7.5, 1:2.5 and 1:50 with 1× ELISA/ELISPOT Diluent from cytokine ELISA kits and analyzed for TNFα using Human TNF alpha ELISA Ready-SET-GO! Kit (eBioscience cat #88-7346-22), IL-1β using Human IL-1β ELISA ready-SET-GO! Kit (2nd generation) (eBioscience, cat #88-7261-22) and IFNγ using Human IFN gamma ELISA ready-SET-GO! Kit (eBioscience, cat #88-7316-22) based manufacturer's manuals.

pEC50 [1]: 7.26
Compound: O=c1[nH]cc(-c2cc([C@H]3C[C@@H]3C(F)F)c(Cl)nn2)c(=O)[nH]1 [Example 10, 5-[6-Chloro-5-[(1S,2S)-2-(difluoromethyl)cyclopropyl]pyridazin-3-yl]-1H-pyrimidine-2,4-dione]

pEC50 [1]: 6.67
Compound: CC[C@H]1C[C@@H]1c1cc(-c2c[nH]c(=O)[nH]c2=O)nnc1C#N [Example 22, 6-(2,4-Dioxo-1H-pyrimidin-5-yl)-4-[(1S,2S)-2-ethylcyclopropyl]pyridazine-3-carbonitrile]

Further lines, the compound ahead of its results:

Compound: O=c1[nH]cc(-c2cc([C@H]3CC3(F)F)c(Cl)nn2)c(=O)[nH]1 (single isomer, unassigned) [Example 9]
pEC50 [1]: 6.53

Compound: CC(C)[C@H]1C[C@@H]1c1cc(-c2c[nH]c(=O)[nH]c2=O)nnc1Cl (relative stereo) [Example 8, 5-[6-Chloro-5-[rel-(1S,2R)-2-isopropylcyclopropyl]pyridazin-3-yl]-1H-pyrimidine-2,4-dione]
pEC50 [1]: 6.75

Compound: Cc1nnc(-c2c[nH]c(=O)[nH]c2=O)cc1[C@H]1C[C@@H]1C(C)C [Example 2, 5-[5-[(1S,2R)-2-isopropylcyclopropyl]-6-methyl-pyridazin-3-yl]-1H-pyrimidine-2,4-dione]
inhibition at 1 mg/kg ([2]; 1 mg/kg oral): -10.6%
inhibition at 2.5 mg/kg ([2]; 2.5 mg/kg oral): 25.2%
inhibition at 6.4 mg/kg ([2]; 6.4 mg/kg oral): 37%
inhibition at 16 mg/kg ([2]; 16 mg/kg oral): 56.5%
inhibition at 40 mg/kg ([2]; 40 mg/kg oral): 88.6%
inhibition at 100 mg/kg ([2]; 100 mg/kg oral): 94.3%
Adenosine (uM) in the growth medium ([3]; compound 0.00229 uM): 0.28 µM
Rescue of T cell proliferation (%) ([3]; compound 0.00229 uM): −6%
Adenosine (uM) in the growth medium ([3]; compound 0.00686 uM): 0.28 µM
Rescue of T cell proliferation (%) ([3]; compound 0.00686 uM): −3%
Adenosine (uM) in the growth medium ([3]; compound 0.02058 uM): 0.21 µM
Rescue of T cell proliferation (%) ([3]; compound 0.02058 uM): −2%
Adenosine (uM) in the growth medium ([3]; compound 0.06173 uM): 0.15 µM
Rescue of T cell proliferation (%) ([3]; compound 0.06173 uM): 37%
Adenosine (uM) in the growth medium ([3]; compound 0.18519 uM): 0.086 µM
Rescue of T cell proliferation (%) ([3]; compound 0.18519 uM): 95%
Adenosine (uM) in the growth medium ([3]; compound 0.55556 uM): 0.046 µM
Rescue of T cell proliferation (%) ([3]; compound 0.55556 uM): 104%
Adenosine (uM) in the growth medium ([3]; compound 1.66667 uM): 0.027 µM
Rescue of T cell proliferation (%) ([3]; compound 1.66667 uM): 106%
Adenosine (uM) in the growth medium ([3]; compound 5.00 uM): 0.017 µM
Rescue of T cell proliferation (%) ([3]; compound 5.00 uM): 107%
INF-γ release, INF-γ ([4]; compound 0.003 uM): 34.5 pg/mL
TNF-α release, TNF-α ([4]; compound 0.003 uM): 386.3 pg/mL
INF-γ release, INF-γ ([4]; compound 0.008 uM): 29.5 pg/mL
TNF-α release, TNF-α ([4]; compound 0.008 uM): 419.9 pg/mL
INF-γ release, INF-γ ([4]; compound 0.025 uM): 51.1 pg/mL
TNF-α release, TNF-α ([4]; compound 0.025 uM): 557.8 pg/mL
INF-γ release, INF-γ ([4]; compound 0.074 uM): 59.4 pg/mL
TNF-α release, TNF-α ([4]; compound 0.074 uM): 782.0 pg/mL
INF-γ release, INF-γ ([4]; compound 0.222 uM): 146.7 pg/mL
TNF-α release, TNF-α ([4]; compound 0.222 uM): 1265.5 pg/mL
INF-γ release, INF-γ ([4]; compound 2.000 uM): 99.5 pg/mL
TNF-α release, TNF-α ([4]; compound 2.000 uM): 1183.9 pg/mL
INF-γ release, INF-γ ([4]; compound 6.000 uM): 105.3 pg/mL
TNF-α release, TNF-α ([4]; compound 6.000 uM): 1985.5 pg/mL
